Measured values as given in patent US20110124741A1, “RADIOSENSITIZER COMPOSITIONS COMPRISING SCHISANDRA CHINENSIS(TURCZ.)BAILL AND METHODS FOR USE” (ETEN BIOTECHNOLOGY LTD., CO., priority 2009, published 2011).

How the values were obtained:
HepG2 cells [1] = test: Annexin V-FITC/PI staining apoptosis assay by flow cytometry, with 8 Gy radiation; format: cell-based, human
Source text: Annexin V is a 35-36 kDa Ca2+ dependent phospholipid-binding protein that has a high affinity for the membrane phospholipid phosphatidylserine (PS), and binds to cells with exposed PS. Since externalization of PS occurs in the earlier stages of apoptosis, Annexin V staining can identify apoptosis at an earlier stage than assays based on nuclear changes such as DNA fragmentation. A vital dye such as propidium iodide (PI) is typically used in conjunction with Annexin V to identify the viability of the cells. For example, cells that are considered viable are Annexin V and PI negative; cells that are in early apoptosis are Annexin V positive and PI negative; and cells that are in late apoptosis or already dead are both Annexin V and PI positive, wherein the membranes of dead and damaged cells are permeable to PI. The Annexin V staining assay was performed by Annexin V-FITC-Kit purchased from Beckman Coulter, Inc (U.S.A). The protocol was conducted according to the manufacturing manuscript.
HepG2 cells were seeded in 6-cm dish (2.5×10^5 cells/dish) for 24 hours of incubation. Various concentration of ES800 (40 or 80 μg/ml) were added into the culture medium, and then incubated for another 24 hours, wherein 0.008% DMSO was added to the control group. The cells were exposed at 8 Gy of radiation (Linear accelerator, Philips SL-18), and incubated for another 48 hours. After collection, the cells were washed by pre-cold PBS and centrifuged at 500×g. The supernatant was removed and the cells were re-suspended with binding buffer. 1 μl Annexin V-FITC solution and 5 μl PI solution were added into the cell suspension and reacted away from light on ice for 15 min. Finally, 400 μl pre-cold binding buffer was added and the samples were analyzed by flow cytometer within 30 min. The percentages of Annexin V^+ and PI^+/− double staining cells were plotted in FIG. 2.
HepG2 cells were seeded in 6-well plate (2.5×10^5 cells/well) for 24 hours of incubation. Various concentrations of ES800 (40 or 80 μg/ml) and Schisandrin B (12 or 24 μg/ml) were added into the culture medium, and then incubated for another 2 hours, wherein control group was added 0.008% DMSO. The cells were exposed at 8 Gy of radiation (Linear accelerator, Philips SL-18), and incubated for another 70 hours. After collection, the cells were washed by pre-cold PBS and centrifuged at 500×g. Following removing the supernatant, the cells were suspended with binding buffer. 1 μl Annexin V-FITC solution and 5 μl PI solution were added into the suspension and the mixture was reacted away from light on ice for 15 min. Finally, 400 μl pre-cold binding buffer was added and the samples were analyzed by flow cytometer within 30 min. The percentages of Annexin V^+ and PI^+/− double staining cells were plotted in FIG. 7.

HepG2 cells [2] = test: Western blot of apoptosis-related proteins (Bcl-2, p21, caspase 9 cleaved form, caspase 3 cleaved form); format: cell-based, human; settings: 12 μg/ml in combination with 8 Gy
Procedure: HepG2 cells were seeded in 6-cm dish (2.5×10^5 cells/dish) for 24 hours of incubation. […] The cells were exposed at 8Gy of radiation (Linear accelerator, Philips SL-18), and incubated for another 48 hours. After collection, the cells were washed by PBS for three times, and then centrifuged at 360×g for 5 min. After removing the supernatant, 120 μl CelLytic-M (Sigma) and 1 μl Protease Inhibitor Cocktail (Sigma) were added into the pellet to suspend the cells and then the suspension was incubated at 4° C. for 30 min. The total protein was collected from the supernatant by centrifugation at 27210×g for 10 min.
[…] protein was loaded to run an SDS-PAGE. The gel was then transferred to PVDF and immersed into TTBS solution (2.42 g Tris base/8 g NaCl/0.1% Tween-20/per liter) containing 5% […] milk for blocking. The membrane was reacted with each primary antibody against p21, Bcl-2, caspase 9 (cleaved form), caspase 3 (cleaved form) and β-actin overnight at 4° C. After the reaction, the membrane was washed by TTBS solution three times, and then reacted with appropriate secondary antibody for another 30-min incubation. […] The bands were quantified by GE ImageMaster 2D Platinum Software. […]
The expression level of apoptosis protein in HepG2 was also detected by western blot. […]

COc1cc2c(c(OC)c1OC)-c1c(cc3c(c1OC)OCO3)CC(C)C(C)C2 (centres unmarked) [Schisandrin B]
apoptosis ratio of HepG2, compared with radiation of 8 Gy alone (FIG. 7) (HepG2 cells [1]; 24 μg/ml in combination with 8 Gy, 2 h pre-incubation, 70 h after radiation): significantly higher
apoptosis ratio of HepG2, compared with the control group (FIG. 7) (HepG2 cells [1]; 12 or 24 μg/ml in combination with 8 Gy, 2 h pre-incubation, 70 h after radiation): significantly higher
effect on the apoptosis of cancer cells (FIG. 7) (HepG2 cells [1]; 12 or 24 μg/ml without exposure of radiation): no effect
effect in inhibition of the growth of cancer cells, compared with radiation therapy alone (FIG. 7) (HepG2 cells [1]; Schisandrin B in combination of radiation therapy): enhanced effect
expression level of caspase 3 (cleaved form), compared with radiation alone (FIG. 8) (HepG2 cells [2]): significantly higher
